From patent US10669284B2, “Fused thiazolopyrimidine derivatives as MNKS inhibitors” (LIFEARC, priority 2015, dated 2020)

Columns and labels:
[1] = test system: eIF4E phosphorylation in normal mouse tissues and xenografted tumors; details: after oral administration; cited from earlier work
HCT116 xenograft = HCT116 xenograft models; cited from earlier work
[2] = test system: B16 melanoma lung metastases; details: cited from earlier work
keratinocytes = details: cited from earlier work
[3] = test system: monocytic cell line THP-1; details: cited from earlier work
Full-length human MNK2 = target: T1, Full-length human MNK2 (Homo sapiens, UniProt Q9HBH9, T379D); assay: MNK2 biochemical IC50 assay (Caliper Mobility Shift Assay); details: read-out: P(IC50) MNK2 (converted)
T1 construct: GST (N); purchased Carna Biosciences 02-146; host or cells: baculovirus expression system

[4] = test system: phosphorylation of eIF4E at ser209 in MV4.11 cell line; assay: MNK cellular activity phospho-eIF4E detection assay (Alphascreen Surefire); format: cell-based; details: Homo sapiens; MV4.11 cell line, phospho-eIF4E (ser209) Alphascreen Surefire; read-out: P(IC50) elF4E (converted)
Method in brief: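 AlphaScreen SureFire sandwich-immunoassay readout of phospho-eIF4E Ser209 in lysed MV4.11 cells; acceptor then donor beads, each 1.5 hr at room temperature. Signal normalised to untreated DMSO-only controls; duplicate curves, values averaged over at least 2 independent experiments.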

Full-length human MNK1 = target: T2, Full-length human MNK1 (Homo sapiens, UniProt Q9BUB5, T385D); assay: MNK1 biochemical IC50 assay (Caliper Mobility Shift Assay); details: read-out: P(IC50) MNK1 (converted)
T2 construct: GST (N); purchased Carna Biosciences 02-145; host or cells: baculovirus expression system
T2 sequence (Q9BUB5 1-424 isoform Q9BUB5-2 T344D): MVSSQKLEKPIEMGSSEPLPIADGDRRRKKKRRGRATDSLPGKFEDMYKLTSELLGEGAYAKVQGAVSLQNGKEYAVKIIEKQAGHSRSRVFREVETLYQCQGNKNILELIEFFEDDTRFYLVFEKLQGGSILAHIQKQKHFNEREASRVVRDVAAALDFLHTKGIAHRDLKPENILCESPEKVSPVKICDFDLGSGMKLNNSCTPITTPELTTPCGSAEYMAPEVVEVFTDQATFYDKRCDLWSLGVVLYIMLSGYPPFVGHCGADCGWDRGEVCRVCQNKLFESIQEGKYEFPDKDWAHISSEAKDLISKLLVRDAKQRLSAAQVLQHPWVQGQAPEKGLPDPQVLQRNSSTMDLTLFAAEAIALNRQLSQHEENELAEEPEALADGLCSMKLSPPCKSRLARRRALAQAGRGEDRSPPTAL

T1 sequence (Q9HBH9 whole entry T379D): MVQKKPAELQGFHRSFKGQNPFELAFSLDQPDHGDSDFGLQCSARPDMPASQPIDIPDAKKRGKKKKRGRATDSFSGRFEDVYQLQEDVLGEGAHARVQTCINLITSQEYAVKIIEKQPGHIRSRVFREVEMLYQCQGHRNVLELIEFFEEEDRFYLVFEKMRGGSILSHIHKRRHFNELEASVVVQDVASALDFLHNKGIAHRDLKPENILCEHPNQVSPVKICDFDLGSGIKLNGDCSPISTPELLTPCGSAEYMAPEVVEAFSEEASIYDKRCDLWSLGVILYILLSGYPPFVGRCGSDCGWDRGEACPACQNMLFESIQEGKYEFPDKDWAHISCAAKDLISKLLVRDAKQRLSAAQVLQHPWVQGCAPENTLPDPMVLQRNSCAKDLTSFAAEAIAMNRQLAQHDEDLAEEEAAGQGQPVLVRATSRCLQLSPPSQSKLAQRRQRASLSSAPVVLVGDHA

SMILES | IC50 (Full-length human MNK2) [nM] | IC50 [4] [nM] | IC50 (Full-length human MNK1) [nM] | further results
CC(=O)C1=C(O)C=C2Oc3c(C(N)=O)c(O)cc(O)c3[C@]2(C)C1=O [cercosporamide] | – | – | – | time to effective block of eIF4E phosphorylation [1]: ≤ 30 min; tumor growth (HCT116 xenograft): reducing tumor growth; outgrowth of lung metastases [2]: suppressing the outgrowth
Nc1ncnc2n[nH]c(Nc3ccc(F)cc3)c12 [CGP57380] | – | – | – | TNF-production (keratinocytes): reduced TNF-production; expression of IL-1β and IL-6 (keratinocytes): decreased expression; block of release of IL-1β and IL-8 induced by Shiga toxin [3]: 73-96%
CNCCCNC(=O)c1nc2c(N3c4ccccc4C[C@@H]3C)ncnc2s1 [Example 131, N-[3-(methylamino)propyl]-7-[(2S)-2-methylindolin-1-yl]thiazolo[5,4-d]pyrimidine-2-carboxamide] | 31.6 | 39.8 | 100 | –
CC1Cc2ccccc2N1c1ncnc2sc(C(=O)NCCCN(C)C)nc12 (stereo not drawn) [Example 124] | 20 | 31.6 | 25.1 | –
CN(C)Cc1cn(-c2ncnc3sc(C(=O)NC4CCOCC4)nc23)c2ccccc12 [Example 121, 7-[3-[(dimethylamino)methyl]indol-1-yl]-N-tetrahydropyran-4-yl-thiazolo[5,4-d]pyrimidine-2-carboxamide] | 79.4 | 79.4 | 39.8 | –
CNCCC1CN(c2ncnc3sc(C(=O)NC4CCOCC4)nc23)c2ccc(F)cc21 (stereo not drawn) [Example 147, 7-[5-fluoro-3-[2-(methyl-amino)ethyl]indolin-1-yl]-N-tetrahydropyran-4-yl-thiazolo[5,4-d]pyrimidine-2-carboxamide] | 10 | 15.8 | 7.94 | –
O=C(NCC1CCNCC1)c1nc2c(N3CC(CCO)c4cc(F)ccc43)ncnc2s1 (stereo not drawn) [Example 139] | 3.16 | 31.6 | 2.51 | –
CNCCCNC(=O)c1nc2c(N3c4ccccc4C[C@H]3C)ncnc2s1 [Example 128, N-[3-(methylamino)propyl]-7-[(2R)-2-methylindolin-1-yl]thiazolo[5,4-d]pyrimidine-2-carboxamide] | 12.6 | 79.4 | 20 | –
C[C@@H]1Cc2ccccc2N1c1ncnc2sc(C(=O)NCC3CCNCC3)nc12 [Example 127, (R)-7-(2-Methylindolin-1-yl)-N-(piperidin-4-ylmethyl)thiazolo[5,4-d]pyrimidine-2-carboxamide] | 15.8 | 15.8 | 12.6 | –
C[C@@H]1Cc2ccccc2N1c1ncnc2sc(C(=O)NC3CCOCC3)nc12 [Example 130, 7-[(2R)-2-methylindolin-1-yl]-N-tetrahydropyran-4-yl-thiazolo[5,4-d]pyrimidine-2-carboxamide] | 39.8 | 50.1 | 50.1 | –
CC1(CO)CN(c2ncnc3sc(C(=O)NCC4CCNCC4)nc23)c2ccccc21 (stereo not drawn) [Example 140] | 6.31 | 39.8 | 6.31 | –
O=C(NC1CCOCC1)c1nc2c(N3CC(CCN4CCOCC4)c4ccccc43)ncnc2s1 (stereo not drawn) [Example 154, 7-[3-(2-morpholinoethyl)indolin-1-yl]-N-tetrahydropyran-4-yl-thiazolo[5,4-d]pyrimidine-2-carboxamide] | 79.4 | 100 | 79.4 | –
O=C(NC1CCOCC1)c1nc2c(N3CCc4cc(Cl)cc(F)c43)ncnc2s1 [Example 91, 7-(5-Chloro-7-fluoro-indolin-1-yl)-N-tetrahydropyran-4-yl-thiazolo[5,4-d]pyrimidine-2-carboxamide] | 50.1 | 100 | 63.1 | –
